Test results as given in ChEMBL document CHEMBL3885861, “Open TG-GATES”.

Species: Rattus norvegicus
Assay: Open TG-GATES - Regimen: Single
Format: toxicity, organism-based, Sprague-Dawley
Parameters: regimen Single, gender Male, age 6 weeks
Details: in vivo, po, 0 mg/kg, route gavage, dose level Control; for APTT / Bas / Eos / Fbg / Hb / Ht / Lym / MCH / MCHC / MCV / Mono / Neu / PT / Plat / RBC / Ret / WBC: tissue Blood; for KIDNEY_L / KIDNEY_R / KIDNEY_TOTAL: tissue Kidney; for LIVER: tissue Liver; for ALP / ALT / AST / CRE / DBIL / GLC / IP / K / LDH / Na / PL / RALB / TBIL / TC / TP / gamma-GTP: tissue Plasma

Molecule `Clc1ccccc1CN1CCc2sccc2C1` [TICLOPIDINE] has a TERMINAL_BW (3 h) of 208.4 g, an APTT (3 h) of 18.6 s and a Bas (3 h) of 0%. It also gave an Eos (3 h) of 1%, a Fbg (3 h) of 221.2 mg/dL and a Hb (3 h) of 13.2 g/dL. For the same molecule, the Ht (3 h) was 37.6%, the Lym (3 h) was 73.2% and the MCH (3 h) was 21.1 pg. It also gave an MCHC (3 h) of 35%, an MCV (3 h) of 60.3 fL and a Mono (3 h) of 3%. The Neu (3 h) was 21.8%, the PT (3 h) was 11.9 s and the Plat (3 h) was 123.5 x10_4/uL. The RBC (3 h) was 623.4 x10_4/ul, the Ret (3 h) was 7.9% and the WBC (3 h) was 82.6 x10_2/uL. The KIDNEY_L (3 h) was 0.9 g, the KIDNEY_R (3 h) was 0.9 g and the KIDNEY_TOTAL (3 h) was 1.9 g. For the same molecule, the LIVER (3 h) was 9.5 g, the ALP (3 h) was 806 IU/L and the ALT (3 h) was 37.4 IU/L. It also gave an AST (3 h) of 69.2 IU/L, a CRE (3 h) of 0.4 mg/dL and a DBIL (3 h) of 0.07 mg/dL. For the same molecule, the GLC (3 h) was 204.6 mg/dL, the IP (3 h) was 9.8 mg/dL and the K (3 h) was 3.9 meq/L. For the same molecule, the LDH (3 h) was 129.2 IU/L, the Na (3 h) was 141.2 meq/L and the PL (3 h) was 142.4 mg/dL. It also gave an RALB (3 h) of 3.3 g/dL, a TBIL (3 h) of 0.1 mg/dL and a TC (3 h) of 79.2 mg/dL. It also gave a TP (3 h) of 5.4 g/dL, a gamma-GTP (3 h) of 1.2 IU/L and a TERMINAL_BW (6 h) of 208.2 g. It also gave an APTT (6 h) of 18.7 s, a Bas (6 h) of 0.2% and an Eos (6 h) of 1%. It also gave a Fbg (6 h) of 214.6 mg/dL, a Hb (6 h) of 13.4 g/dL and a Ht (6 h) of 38.1%. It also gave a Lym (6 h) of 73%, an MCH (6 h) of 21.3 pg and an MCHC (6 h) of 35.2%. For the same molecule, the MCV (6 h) was 60.3 fL, the Mono (6 h) was 3% and the Neu (6 h) was 21.4%. It also gave a PT (6 h) of 12 s, a Plat (6 h) of 123.6 x10_4/uL and an RBC (6 h) of 632.8 x10_4/ul. For the same molecule, the Ret (6 h) was 7.7%, the WBC (6 h) was 93.2 x10_2/uL and the KIDNEY_L (6 h) was 1 g. The KIDNEY_R (6 h) was 0.9 g, the KIDNEY_TOTAL (6 h) was 1.9 g and the LIVER (6 h) was 9.1 g. For the same molecule, the ALP (6 h) was 821 IU/L, the ALT (6 h) was 32.4 IU/L and the AST (6 h) was 68 IU/L. It also gave a CRE (6 h) of 0.4 mg/dL, a DBIL (6 h) of 0.074 mg/dL and a GLC (6 h) of 183.2 mg/dL. It also gave an IP (6 h) of 9.3 mg/dL, a K (6 h) of 3.9 meq/L and an LDH (6 h) of 170.8 IU/L. For the same molecule, the Na (6 h) was 141.4 meq/L, the PL (6 h) was 126.8 mg/dL and the RALB (6 h) was 3.2 g/dL. The TBIL (6 h) was 0.1 mg/dL, the TC (6 h) was 70.8 mg/dL and the TP (6 h) was 5.3 g/dL. For the same molecule, the gamma-GTP (6 h) was 1 IU/L, the TERMINAL_BW (9 h) was 205.8 g and the APTT (9 h) was 17.9 s. For the same molecule, the Bas (9 h) was 0%, the Eos (9 h) was 1% and the Fbg (9 h) was 222 mg/dL. It also gave a Hb (9 h) of 13.3 g/dL, a Ht (9 h) of 37.5% and a Lym (9 h) of 78.2%. It also gave an MCH (9 h) of 21.5 pg, an MCHC (9 h) of 35.6% and an MCV (9 h) of 60.5 fL. It also gave a Mono (9 h) of 2%, a Neu (9 h) of 17.8% and a PT (9 h) of 12.3 s. It also gave a Plat (9 h) of 131.6 x10_4/uL, an RBC (9 h) of 620 x10_4/ul and a Ret (9 h) of 7.6%. For the same molecule, the WBC (9 h) was 87.2 x10_2/uL, the KIDNEY_L (9 h) was 0.9 g and the KIDNEY_R (9 h) was 0.9 g. It also gave a KIDNEY_TOTAL (9 h) of 1.8 g, an LIVER (9 h) of 7.9 g and an ALP (9 h) of 871.4 IU/L. For the same molecule, the ALT (9 h) was 33.4 IU/L, the AST (9 h) was 65.6 IU/L and the CRE (9 h) was 0.4 mg/dL. The DBIL (9 h) was 0.072 mg/dL, the GLC (9 h) was 193.8 mg/dL and the IP (9 h) was 10 mg/dL. It also gave a K (9 h) of 3.7 meq/L, an LDH (9 h) of 128.4 IU/L and a Na (9 h) of 141.8 meq/L. The PL (9 h) was 130.8 mg/dL, the RALB (9 h) was 3.3 g/dL and the TBIL (9 h) was 0.1 mg/dL. It also gave a TC (9 h) of 74 mg/dL, a TP (9 h) of 5.4 g/dL and a gamma-GTP (9 h) of 1 IU/L. For the same molecule, the TERMINAL_BW (24 h) was 221.4 g, the APTT (24 h) was 20.8 s and the Bas (24 h) was 0.8%. The Eos (24 h) was 0.8%, the Fbg (24 h) was 228.6 mg/dL and the Hb (24 h) was 13.7 g/dL. The Ht (24 h) was 38.7%, the Lym (24 h) was 75% and the MCH (24 h) was 21.5 pg. It also gave an MCHC (24 h) of 35.4%, an MCV (24 h) of 60.7 fL and a Mono (24 h) of 3.6%. The Neu (24 h) was 19.2%, the PT (24 h) was 11.9 s and the Plat (24 h) was 130.5 x10_4/uL. The RBC (24 h) was 638 x10_4/ul, the Ret (24 h) was 6.5% and the WBC (24 h) was 110.6 x10_2/uL. For the same molecule, the KIDNEY_L (24 h) was 1 g, the KIDNEY_R (24 h) was 1 g and the KIDNEY_TOTAL (24 h) was 1.9 g. For the same molecule, the LIVER (24 h) was 10.1 g, the ALP (24 h) was 880.2 IU/L and the ALT (24 h) was 43.8 IU/L. It also gave an AST (24 h) of 73.6 IU/L, a CRE (24 h) of 0.4 mg/dL and a DBIL (24 h) of 0.074 mg/dL. The GLC (24 h) was 198.2 mg/dL, the IP (24 h) was 8.5 mg/dL and the K (24 h) was 3.7 meq/L. For the same molecule, the LDH (24 h) was 142.2 IU/L, the Na (24 h) was 141.8 meq/L and the PL (24 h) was 134.2 mg/dL. The RALB (24 h) was 3.4 g/dL, the TBIL (24 h) was 0.1 mg/dL and the TC (24 h) was 70 mg/dL. It also gave a TP (24 h) of 5.5 g/dL and a gamma-GTP (24 h) of 1 IU/L.
